Legend:
[1] = Stability of prodrugs / release of parent drug in Simulated Gastric Fluid (SGF); format: in vitro ADME; settings: for % of Prodrug remaining (μM): simulated gi fluid
Description: SGF was prepared according to the procedure described in Test Solution—USP. Thus, 0.2 g of sodium chloride and 0.32 g of purified pepsin (Sigma, derived from porcine stomach mucosa with an activity of 800 to 2500 units per mg of protein) were dissolved in 0.7 mL of hydrochloric acid and sufficient water to make 100 mL. This test solution has a pH of about 1.2 and was utilized for in-vitro studies.
(§1) The solution of the test compound in acetonitrile (10 μL of […] solution) was dissolved in 990 μL of biological fluid (SGF/SIF/Human Plasma). The resulting reaction mixtures were incubated at 37° C. At specified time intervals, aliquots (60 μL) were withdrawn and added to acetonitrile (200 μL) and mixed well by vortexing for 2 minutes. The mixture was centrifuged at 13000 rpm for 15 min at 4° C., and the supernatant analyzed by HPLC. The amounts (area percentages) of the remaining intact prodrug (if any) and the released metabolite(s) were estimated by HPLC.
(§2) This was performed by using HPLC instrument (Waters alliance), pump 2695, and PDA detector 2996 with the following chromatographic parameters: Wavelength −210 nm; Column-Waters X-Terra RP-18, 150×3.9 mm, 5 μm; Injection volume, 25 μL; Run time, 13 min. Mode of operation was linear gradient with mobile phase A: Acetonitrile and B: 0.1% TFA in water (filtered and degassed). Flow rate was 1.0 mL/min at 25° C.

[2] = Stability of prodrugs at RT and at 50° C. (capped vials); format: physicochemical
[3] = Stability / release of aspirin and salicylic acid in human plasma; format: in vitro ADME; settings: 100 μM, FIG. 11
Description: Human plasma was similarly obtained by processing the blood taken from healthy human male volunteers (age group 25-35 years) who had not consumed any NSAIDS one week prior to the collection of blood. This plasma was utilized for the in-vitro experiments.
as §1, §2

[4] = Stability / release of aspirin in Simulated Intestinal Fluid (SIF); format: in vitro ADME; settings: 1 mM concentration
Description: SIF was prepared according to the procedure described in Test Solution—USP. Thus, 0.68 g of monobasic potassium phosphate was dissolved in 25 mL of water followed by addition of 0.2N NaOH (7.7 mL) and water (50 mL). To this solution was added pancreatin (1 g) and mixed; the pH of the resulting solution was adjusted to about 6.8 with 0.2N HCl/0.2N NaOH and the solution, was diluted with water to 100 mL. The solution was utilized for in-vitro studies.
as §1
This was performed by using HPLC instrument (Waters alliance), pump 2695, and PDA detector 2996 with the following chromatographic parameters: Wavelength −210 nm; Column-Waters X-Terra RP-18, 150×3.9 mm, 5 μm; Injection volume, 25 μL; Run time, 13 min. Mode of operation was linear gradient with mobile phase A: Acetonitrile and B: 0.1% TFA in water (filtered and degassed). […]

[5] = test system: serum thromboxane B2 (TXB2) formation; assay: Inhibition of serum thromboxane B2 (TXB2) formation; format: in vivo, Sprague-Dawley (SD) rats; settings: SD rats, 30 mg/kg aspirin or equimolar 44.82 mg/kg, p.o., o.d., 7 days
Description: Aspirin is used as an antiplatelet agent for the treatment of cardiovascular complications. […] It is therefore possible to achieve complete suppression of platelet. TXA2 (and also TXB2) formation via chronic administration of aspirin at a dose of 30 mg/daily (Patrignani, P., et al. J. Clin. Invest. 1982, 69, 1366-1372). The antiplatelet activity of aspirin (30 mg/kg) and its prodrug I-D1-R1 (at a dose equimolar to 30 mg/kg dose of aspirin) was evaluated in Sprague-Dawley (SD) rats through estimation of serum TXB2 levels (Esser, R. et al., Br. J. Pharmacol. 2006, 144, 538-550) and the experimental results are presented in FIG. 7.
In vivo TXB2 inhibition potential of aspirin and NO-aspirin prodrugs was assessed in Sprague-Dawley (SD) rats; the serum TXB2 levels were estimated according to the reported procedure (R. Esser, R., et al., Br. J. Pharmacol. 2006, 144, 538-550). Thus, vehicle, aspirin (30 mg/kg) or aspirin prodrug I-D1-R1 (44.82 mg/kg which is equivalent to 30 mg/kg dose of aspirin) were administered orally to the overnight fasted SD rats. […] The serum TXB2 concentrations were determined by enzyme immunoassay (EIA) using commercially available TXB2 estimation kit (Cayman Chemicals, USA), according to the method described in kit information booklet.

[6] = Acute gastric ulcerogenesis activity study; settings: rats, acute oral; aspirin 100 mg/kg, I-D1-R1 298.85 mg/kg, naproxen 100 mg/kg, I-D2-R1 138.67 mg/kg
Description: The animals were sacrificed after 5 h of drug administration. The stomachs of the treated animals were separated, perfused with 2% formalin (10 mL), and a large curvature was excised. The severity of the mucosal damage was assessed on the basis of the size of the observed ulcer lesions in the images captured using a stereomicroscope attached to a digital camera (Stemi 2000, Zeiss, Germany). The Image Pro Plus software (version 5.1) was used to quantify the hemorrhagic/ulcer lesions in pixels and to convert them into mm^2. The total area of lesions was calculated for each treatment group and the measure of gastric ulcers (Mean±SEM) (mm^2) was estimated (FIGS. 5 and 6).

CC(=O)Oc1ccccc1C(=O)OC(C)O[N+](=O)[O-] (stereo not drawn) [I-D1-R1, 1-(nitrooxy)ethyl 2-acetoxybenzoate]
Release of parent drug on incubation in SGF (in words) [1]: released quantitative amounts of the parent drug aspirin | % of Aspirin Released (μM) ([1]; 0 min, 1 µM, pH 1.2): 0% | AUC of aspirin (released / remaining) in SGF ([1]; 1 µM, pH 1.2): 10406 µM·h | Aspirin released in SGF, less than that of aspirin ([1]; 1 µM, pH 1.2): about 15% | % of Aspirin Released (μM) ([1]; 5 min, 1 µM, pH 1.2): 18% | % of Aspirin Released (μM) ([1]; 10 min, 1 µM, pH 1.2): 44% | % of Aspirin Released (μM) ([1]; 30 min, 1 µM, pH 1.2): 97% | % of Aspirin Released (μM) ([1]; 60 min, 1 µM, pH 1.2): 100% | % of Aspirin Released (μM) ([1]; 120 min, 1 µM, pH 1.2): 100% | % of Prodrug remaining (μM) ([1]; 0 h, 1 µM, pH 1.2): 91% | % of Prodrug remaining (μM) ([1]; 5 min, 1 µM, pH 1.2): 82% | % of Prodrug remaining (μM) ([1]; 10 min, 1 µM, pH 1.2): 56% | % of Prodrug remaining (μM) ([1]; 0.5 h, 1 µM, pH 1.2): 3% | % of Prodrug remaining (μM) ([1]; 1 h, 1 µM, pH 1.2): 0% | % of Prodrug remaining (μM) ([1]; 2 h, 1 µM, pH 1.2): 0% | Asp (Aspirin) formed on storage ([2]; 50° C., 0 h): NIL | Prodrug (area %) on storage ([2]; 50° C., 0 h): 99.14% | SA (Salicylic acid) formed on storage ([2]; 50° C., 0 h): NIL | Prodrug (area %) on storage ([2]; 50° C., 1 m): 88.34% | SA (Salicylic acid) formed on storage ([2]; 50° C., 1 m): 0.6% | Asp (Aspirin) formed on storage ([2]; 50° C., 2 d): NIL | Prodrug (area %) on storage ([2]; 50° C., 2 d): 98.84% | SA (Salicylic acid) formed on storage ([2]; 50° C., 2 d): 0.1% | Asp (Aspirin) formed on storage ([2]; 50° C., 5 d): 0.3% | Prodrug (area %) on storage ([2]; 50° C., 5 d): 98.18% | SA (Salicylic acid) formed on storage ([2]; 50° C., 5 d): 0.14% | Degradation of prodrug on storage ([2]; 50° C., after 1 month): about 11% | Degradation of prodrug on storage ([2]; 50° C., after 5 days): ~1% | Asp (Aspirin) formed on storage ([2]; RT, 0 h): NIL | Prodrug (area %) on storage ([2]; RT, 0 h): 99.14% | SA (Salicylic acid) formed on storage ([2]; RT, 0 h): NIL | Asp (Aspirin) formed on storage ([2]; RT, 1 m): 0.13% | Prodrug (area %) on storage ([2]; RT, 1 m): 98.56% | SA (Salicylic acid) formed on storage ([2]; RT, 1 m): NIL | Asp (Aspirin) formed on storage ([2]; RT, 3 d): NIL | Prodrug (area %) on storage ([2]; RT, 3 d): 98.89% | SA (Salicylic acid) formed on storage ([2]; RT, 3 d): NIL | Asp (Aspirin) formed on storage ([2]; RT, 18 d): NIL | Prodrug (area %) on storage ([2]; RT, 18 d): 98.95% | SA (Salicylic acid) formed on storage ([2]; RT, 18 d): NIL | Stability on storage (in words) ([2]; RT, up to 1 month): very stable | Salicylic acid released in human plasma (in words) [3]: large and proportional amount | Release of aspirin in SIF (in words) [4]: released significant amount of aspirin | Inhibition of TXB2 formation [5]: 72.59% | Development of gastric ulcers or lesions [6]: none of the animals

— patent US9844599B2, “Nitric oxide releasing produgs of therapeutic agents” (priority 2013, dated 2017)
